Molecular target: hTREM2 (Homo sapiens, UniProt Q9NZC2)
Test: TREM2 activity by cellular Syk phosphorylation (AlphaScreen/AlphaLISA) in TREM2/DAP12-HEK cells, used for Examples 1-305
Type: cell-based
Design: expressed in transfected cells
Settings: HEK293 Cells
Source text: In vitro Measurement of Triggering Receptor Expressed on Myeloid Cells 2 activity using cellular phosphorylation of Spleen Tyrosine Kinase (“Syk”) Assays used for Examples 1-305
Pharmacological measurements of TREM2 signaling through DAP12 were made with TREM2 and DAP12 overexpressing HEK293 cells stable cell lines that had been single-cell cloned (“TREM2/DAP12-HEK”). The readout of the TREM2 signaling utilized Perkin Elmer AlphaScreen/AlphaLISA technology monitoring the phosphorylation levels of the Syk kinase. TREM2/DAP12-HEK cell lines were cultured in DMEM-F12 (Corning 10-092-CM) supplemented with 1X Penicillin/Streptomycin (Corning 30-002-CI), 1X GlutaMAX (Gibco 35050-061), and 10% Fetal Bovine Serum (Life Technologies 10099) referred to as “HEK Culture Medium”. Suspensions of TREM2/DAP12-HEK cells were prepared in HEK Culture Medium and dispensed into 384-well poly-D-lysine coated microplates (Corning 354661) at a density of 20,000 cells/well using a Multidrop Combi peristaltic microplate dispenser (Thermo), 25 μL volume of cell suspension/well. Plates containing cells were then incubated for 20 hours in a humidified cell culture incubator at 37° C. with 5% CO2 (Thermo). After incubation, culture medium was removed from all wells of each microplate and replaced with 20 μL of “Assay Buffer” comprised of DMEM-F12 (Corning 10-092-CM) supplemented with 1X Penicillin/Streptomycin (Corning 30-002-CI) and 0.1% Pluronic F-68 Polyol (MP Biomedical 092750049) using a Bravo 384-well pipette-based liquid handling system (Agilent). Assay Buffer contained diluted test articles (in 1% final DMSO concentration for compounds) or 100 nM anti-human/mouse TREM2 antibody (R&D Systems MAB17291) as a positive control, or 100 nM or rat IgG2B isotype Ab as a negative control (R&D Systems MAB0061). The plates were incubated with test articles and controls for 45 minutes at room temperature and then the medium was aspirated/removed from each well of the plates. A Multidrop Combi peristaltic liquid handler (Thermo) was used to dispense 15 μL/well of “Cell Lysis Immunoassay Buffer”. The Cell Lysis Immunoassay Buffer contained M-PER Mammalian Protein Extraction Reagent (Pierce/ThermoFisher 78505), 1X Halt Phosphatase Inhibitor Cocktail (ThermoFisher #78427), 0.1875 nM anti-phospho-Syk (Tyr525/526) (C87C1) rabbit mAb (Cell Signaling Technologies catalog #2710), and 1.5 nM biotinylated Mouse anti-human Syk (4D10) antibody (BD Biosciences, catalog #624008). Plates were incubated for 1 hour at room temperature after the addition of the Cell Lysis Immunoassay Buffer. The Multidrop Combi liquid handler was used to dispense 15 μL of AlphaScreen Acceptor Bead Solution containing 7.5 μg/mL anti-rabbit IgG (Fc specific) AlphaLISA Acceptor Beads (Perkin Elmer AL104R) in 1X Immunoassay buffer (Perkin Elmer AL000F) to each well of the microplates. The plates were incubated for 2 hours at room temperature. Following the incubation with the AlphaLISA Acceptor Bead Solution, a Multidrop Combi liquid handler (Thermo) was used to dispense 15 μL of AlphaScreen Donor Bead Solution containing 30 μg/mL of AlphaScreen Streptavidin Donor beads (Perkin Elmer 6760002B) in 1X Immunoassay buffer (Perkin Elmer AL000F) to each well of the microplates. Microplates were incubated for 2 hours protected from light sources as the AlphaScreen reagents are light sensitive. Once the final incubation was completed, an AlphaScreen signal was acquired from the donor and acceptor beads using an Envision high throughput multi-modal microplate reader (Perkin Elmer) calibrated to the plate type with the AlphaScreen mirror and filter-set in 384-well mode, 680 nanometer excitation wavelength. The total measurement time per well was 550 milliseconds with a 180 millisecond excitation time. […]

Chain of hTREM2 (Q9NZC2 19-230): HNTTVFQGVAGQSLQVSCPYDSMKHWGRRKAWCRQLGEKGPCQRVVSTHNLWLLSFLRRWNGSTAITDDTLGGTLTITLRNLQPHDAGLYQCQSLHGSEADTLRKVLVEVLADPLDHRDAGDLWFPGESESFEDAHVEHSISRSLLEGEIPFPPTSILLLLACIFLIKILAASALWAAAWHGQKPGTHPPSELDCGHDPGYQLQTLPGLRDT
Chain of hTREM2 (O43914 22-113 partner): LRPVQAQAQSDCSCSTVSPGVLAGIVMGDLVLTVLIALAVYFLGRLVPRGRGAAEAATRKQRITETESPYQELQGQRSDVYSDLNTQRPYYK

| Structure (SMILES) | EC50 [nM] | hTREM2 Emax |
| --- | --- | --- |
| Cc1nc2nc([C@H]3CCO[C@@H](c4cnn(C5CC5)c4)C3)nc(-c3ccc(Cl)cc3F)c2nc1C (single isomer, unassigned) [Example 181] |  | +++ (Emax>150 and ≤250) |
| Cc1ccc(-c2nc([C@@H]3CCO[C@H](c4cnn(C)c4)C3)nc3nc(C)c(C)nc23)c(F)c1 (single isomer, unassigned) [Example 184] | 500 to 3000 | +++ (Emax>150 and ≤250) |
| Cc1nc2nc([C@H]3CCO[C@H](c4cnn(C)c4)C3)cc(-c3ccc(Cl)cc3F)c2nc1C (single isomer, unassigned) [Example 186] | 500 to 3000 | +++ (Emax>150 and ≤250) |
| Cc1ccc(-c2cc([C@@H]3CCO[C@H](c4cnn(C)c4)C3)nc3nc(C)c(C)nc23)c(F)c1 (single isomer, unassigned) [Example 189] | 500 to 3000 | +++ (Emax>150 and ≤250) |
| Cc1cnc2c(-c3ccc(Cl)cc3F)nc([C@H]3CCO[C@@H](c4cnn(C)c4)C3)cc2n1 (single isomer, unassigned) [Example 191] | 50 to 500 | ++++ (Emax>250) |
| Cc1nc2cc([C@@H]3CCO[C@H](c4cnn(C)c4)C3)nc(-c3ccc(Cl)cc3F)c2nc1C (single isomer, unassigned) [Example 193] | 50 to 500 | ++++ (Emax>250) |
| Cc1nc2cc([C@H]3CCO[C@H](c4cnn(C)c4)C3)nc(-c3ccc(Cl)cc3F)c2nc1C (single isomer, unassigned) [Example 194] | 500 to 3000 | ++++ (Emax>250) |
| Cc1cc2c(-c3ccc(Cl)cc3F)nc([C@@H]3CCO[C@H](c4cnn(C5CC5)c4)C3)nc2nc1C (single isomer, unassigned) [Example 198] | 50 to 500 | +++ (Emax>150 and ≤250) |
| Cc1cc2c(-c3ccc(F)cc3F)nc([C@@H]3CCO[C@H](c4cnn(C)c4)C3)nc2nc1C (single isomer, unassigned) [Example 200] | 500 to 3000 | +++ (Emax>150 and ≤250) |
| Cc1ccc(-c2nc([C@@H]3CCO[C@H](c4cnn(C)c4)C3)nc3nc(C)c(C)cc23)c(F)c1 (single isomer, unassigned) [Example 202] | 500 to 3000 | ++ (Emax>100 and ≤150) |
| Cc1nc2nc([C@@H]3CCO[C@@H](c4cnn(C)c4)C3)nc([C@H]3C[C@H](C(F)(F)F)C3)c2nc1C (single isomer, unassigned) [Example 204] | 500 to 3000 | ++++ (Emax>250) |
| Cc1nc2nc([C@H]3CCO[C@@H](c4cnn(C)c4)C3)nc([C@H]3C[C@H](C(F)(F)F)C3)c2nc1C (single isomer, unassigned) [Example 205] | 50 to 500 | +++ (Emax>150 and ≤250) |
| Cc1cc([C@@H]2C[C@H](c3nc(-c4ccc(Cl)cc4F)c4nc(C)c(C)nc4n3)CCO2)ccn1 (single isomer, unassigned) [Example 206] | 50 to 500 | ++++ (Emax>250) |
| Cc1ncc([C@H]2C[C@@H](c3nc(-c4ccc(Cl)cc4F)c4nc(C)c(C)nc4n3)CCO2)cn1 (single isomer, unassigned) [Example 209] | 50 to 500 | +++ (Emax>150 and ≤250) |
| Cc1cc([C@@H]2C[C@H](c3nc(-c4ccc(F)cc4F)c4nc(C)c(C)nc4n3)CCO2)ccn1 (single isomer, unassigned) [Example 210] | 50 to 500 | ++++ (Emax>250) |
| Cc1cc([C@@H]2C[C@@H](c3nc(-c4ccc(F)cc4F)c4nc(C)c(C)nc4n3)CCO2)ccn1 (single isomer, unassigned) [Example 212] | 500 to 3000 | ++++ (Emax>250) |
| Cc1cc([C@H]2C[C@H](c3nc(-c4ccc(F)cc4F)c4nc(C)c(C)nc4n3)CCO2)ccn1 (single isomer, unassigned) [Example 213] | 50 to 500 | +++ (Emax>150 and ≤250) |

The next lines start with the values.

| EC50 [nM] | hTREM2 Emax | Structure (SMILES) |
| --- | --- | --- |
| 50 to 500 | +++ (Emax>150 and ≤250) | Cc1nc2nc([C@@H]3CCO[C@H](c4cnn(C5CC5)c4)C3)nc(-c3ccc(Cl)cc3F)c2nc1C (single isomer, unassigned) [Example 180] |
| ≤ 50 | +++ (Emax>150 and ≤250) | Cc1nc2nc([C@H]3CCO[C@@H](c4cnn(C)c4)C3)nc(-c3ccc(F)cc3F)c2nc1C (single isomer, unassigned) [Example 182] |
| ≤ 50 | ++++ (Emax>250) | Cc1ccc(-c2nc([C@H]3CCO[C@@H](c4cnn(C)c4)C3)nc3nc(C)c(C)nc23)c(F)c1 (single isomer, unassigned) [Example 183] |
| 50 to 500 | +++ (Emax>150 and ≤250) | Cc1cnc2c(-c3ccc(Cl)cc3F)cc([C@H]3CCO[C@@H](c4cnn(C)c4)C3)nc2n1 (single isomer, unassigned) [Example 185] |
| ≤ 50 | +++ (Emax>150 and ≤250) | Cc1nc2nc([C@H]3CCO[C@@H](c4cnn(C)c4)C3)cc(-c3ccc(Cl)cc3F)c2nc1C (single isomer, unassigned) [Example 187] |
| ≤ 50 | +++ (Emax>150 and ≤250) | Cc1nc2nc([C@H]3CCO[C@@H](c4cnn(C)c4)C3)cc(-c3ccc(F)cc3F)c2nc1C (single isomer, unassigned) [Example 188] |
| ≤ 50 | +++ (Emax>150 and ≤250) | Cc1ccc(-c2cc([C@H]3CCO[C@@H](c4cnn(C)c4)C3)nc3nc(C)c(C)nc23)c(F)c1 (single isomer, unassigned) [Example 190] |
| ≤ 50 | ++++ (Emax>250) | Cc1nc2cc([C@H]3CCO[C@@H](c4cnn(C)c4)C3)nc(-c3ccc(F)cc3F)c2nc1C (single isomer, unassigned) [Example 195] |
| ≤ 50 | +++ (Emax>150 and ≤250) | Cc1ccc(-c2nc([C@H]3CCO[C@@H](c4cnn(C)c4)C3)cc3nc(C)c(C)nc23)c(F)c1 (single isomer, unassigned) [Example 196] |
| ≤ 50 | ++++ (Emax>250) | Cc1ccc2c(-c3ccc(Cl)cc3F)nc([C@H]3CCO[C@@H](c4cnn(C5CC5)c4)C3)nc2n1 (single isomer, unassigned) [Example 197] |
| ≤ 50 | ++++ (Emax>250) | Cc1cc2c(-c3ccc(Cl)cc3F)nc([C@H]3CCO[C@@H](c4cnn(C5CC5)c4)C3)nc2nc1C (single isomer, unassigned) [Example 199] |
| ≤ 50 | +++ (Emax>150 and ≤250) | Cc1cc2c(-c3ccc(F)cc3F)nc([C@H]3CCO[C@@H](c4cnn(C)c4)C3)nc2nc1C (single isomer, unassigned) [Example 201] |
| ≤ 50 | +++ (Emax>150 and ≤250) | Cc1ccc(-c2nc([C@H]3CCO[C@@H](c4cnn(C)c4)C3)nc3nc(C)c(C)cc23)c(F)c1 (single isomer, unassigned) [Example 203] |
| ≤ 50 | +++ (Emax>150 and ≤250) | Cc1cc([C@H]2C[C@@H](c3nc(-c4ccc(Cl)cc4F)c4nc(C)c(C)nc4n3)CCO2)ccn1 (single isomer, unassigned) [Example 207] |
| ≤ 50 | +++ (Emax>150 and ≤250) | COc1cc([C@H]2C[C@@H](c3nc(-c4ccc(Cl)cc4F)c4nc(C)c(C)nc4n3)CCO2)ccn1 (single isomer, unassigned) [Example 208] |
| ≤ 50 | ++++ (Emax>250) | Cc1cc([C@H]2C[C@@H](c3nc(-c4ccc(F)cc4F)c4nc(C)c(C)nc4n3)CCO2)ccn1 (single isomer, unassigned) [Example 211] |

Reference: patent publication US11884675B2, “Heterocyclic compounds as triggering receptor expressed on myeloid cells 2 agonists and methods of use” (AMGEN INC., priority 2020, dated 2024)
